We go through 49 molecules from patent US11884683B2, “Tricyclic heterocycle compounds useful as HIV integrase inhibitors” (Merck Sharp & Dohme LLC, priority 2018, dated 2024).

Molecules are shown by their SMILES.

The first experiment concerns HIV-1 (H9/IIIB strain). In words: Multiple round HIV-1 infection assay in MT4-GFP cells (wild type cell assay, Viking). The following applies: 0% NHS condition; MT4-GFP cells infected with HIV-1 H9/IIIB; inhibition of reproductive ratio R0, ~48 h and ~72 h post-infection; read-out: WILD TYPE CELL ASSAY Viking IP (0% NHS). Format: cell-based. Here is the method: Assessing Antiviral Potency in a Multiple Round HIV-1 Infection Assay
The antiviral activity of the Examples herein was assessed in an assay that measures the rate of replication of HIV in cell culture, and performed according to the following procedure. HIV-1 replication was monitored using MT4-gag-GFP clone D3 (hereafter designated MT4-GFP), which are MT-4 cells modified to harbor a GFP reporter gene, the expression of which is dependent on the HIV-1 expressed proteins tat and rev. Productive infection of an MT4-GFP cell with HIV-1 results in GFP expression approximately 24 h post-infection. MT4-GFP cells were maintained at 37° C./5% CO2/90% relative humidity in RPMI 1640 supplemented with 10% fetal bovine serum, 100 U/ml penicillin/streptomycin, and 400 μg/ml G418 to maintain the reporter gene. For infections, MT4-GFP cells were placed in the same medium lacking G418 and infected overnight with HIV-1 (H9/IIIB strain) virus at an approximate multiplicity of infection of 0.01 in the same incubation conditions. Cells were then washed and re-suspended in either RPMI 1640 at 2×10^5 cells/mL (0% NHS condition) or 100% normal human serum (NHS) at 2×10^5 cells/mL (100% NHS condition). Compound plates were prepared by dispensing compounds dissolved in DMSO into wells of 384 well poly-D-lysine-coated plates (0.2 μl/well) using an ECHO acoustic dispenser. Each compound was tested in a 10-point serial 3-fold dilution (typical final concentrations: 1050 nM-0.05 nM for 0% NHS condition or […]-2.13 nM for 100% NHS condition). Controls included no inhibitor (DMSO only) and a combination of three antiviral agents (efavirenz, indinavir, an in-house integrase strand transfer inhibitor at final concentrations of […] each). Cells were added ([…]) to compound plates and the infected cells were maintained at 37° C./5% CO2/90% relative humidity.
Infected cells were quantified at two time points, ˜48 h and ˜72 h post-infection, by counting the number of green cells in each well using an Acumen eX3 scanner. The increase in the number of green cells over ˜24 h period gives the reproductive ratio, RO, which is typically 5-15 and has been shown experimentally to be in logarithmic phase (data not shown). Inhibition of R0 is calculated for each well, and IC50s determined by non-linear 4-parameter curve fitting.
Regarding `CC1N(C)C(=O)c2c(O)c(=O)c(C(=O)NCc3ccc(F)cc3F)c3n2N1CC3O` (single isomer, unassigned) [Compound 14], the IC50 was determined as 1.4 nM.
As for `CC1N(C)C(=O)c2c(O)c(=O)c(C(=O)NCc3c(F)cc(F)cc3F)c3n2N1CC3O` (single isomer, unassigned) [Compound 18], the IC50 is 1.6 nM.
`CC1N(C)C(=O)c2c(O)c(=O)c(C(=O)NCc3c(F)ccc(F)c3F)c3n2N1CC3O` (single isomer, unassigned) [Compound 22]: the IC50 was 2.3 nM.
For the molecule `CCC1N(C)C(=O)c2c(O)c(=O)c(C(=O)NCc3c(F)ccc(Cl)c3F)c3n2N1CC3O` (single isomer, unassigned) [Compound 26], the IC50 is 3.4 nM.
Same read-out and setting: the figure for `CCC1N(C)C(=O)c2c(O)c(=O)c(C(=O)NCc3ccc(F)cc3F)c3n2N1CC3O` (single isomer, unassigned) [Compound 29] is 0.76 nM; for `CCC1N(C)C(=O)c2c(O)c(=O)c(C(=O)NCc3ccc(F)cc3F)c3n2N1CC3O` (single isomer, unassigned) [Compound 30] it is 1.6 nM.
Still for that read-out and setting: the figure for `CCC1N(C)C(=O)c2c(O)c(=O)c(C(=O)NCc3c(F)cc(F)cc3F)c3n2N1CC3O` (single isomer, unassigned) [Compound 34] is 2.8 nM; for `CCN1C(=O)c2c(O)c(=O)c(C(=O)NCc3c(F)ccc(Cl)c3F)c3n2N(CC3O)C1C` (single isomer, unassigned) [Compound 70] it is 1.8 nM.
For `CCN1C(=O)c2c(O)c(=O)c(C(=O)NCc3ccc(C(F)F)cc3)c3n2N(CC3O)C1C` (single isomer, unassigned) [Compound 74], the IC50 stood at 66 nM.
The same measure, in the same setting: the result for `CCN1C(=O)c2c(O)c(=O)c(C(=O)NCc3ccc(C(F)(F)F)cc3)c3n2N(CC3O)C1C` (single isomer, unassigned) [Compound 77] reads 258 nM; that for `CCN1C(=O)c2c(O)c(=O)c(C(=O)NCc3ccc(C(F)(F)F)cc3)c3n2N(CC3O)C1C` (single isomer, unassigned) [Compound 78], 87 nM.
With `CCN1C(=O)c2c(O)c(=O)c(C(=O)NCc3c(F)ccc(F)c3F)c3n2N(CC3O)C1C` (single isomer, unassigned) [Compound 82], the IC50 is 2.2 nM.
The same measure, in the same setting: the figure for `CCN1C(=O)c2c(O)c(=O)c(C(=O)NCc3ccc(F)cc3)c3n2N(CC3O)C1C` (single isomer, unassigned) [Compound 86] is 1.3 nM.
Still for that read-out and setting: the result for `CCN1C(=O)c2c(O)c(=O)c(C(=O)NCc3ccc(F)cc3F)c3n2N(CC3O)C1C` (single isomer, unassigned) [Compound 90] reads 1.9 nM; that for `CN1C(=O)c2c(O)c(=O)c(C(=O)NCc3ccc(F)cc3F)c3n2N(CC3O)C12CCOC2` (single isomer, unassigned) [Compound 112], 1.7 nM.
Same read-out and setting: the result for `CN1C(=O)c2c(O)c(=O)c(C(=O)NCc3c(F)ccc(Cl)c3F)c3n2N(CC3O)C12CCOC2` (single isomer, unassigned) [Compound 116] reads 3.1 nM.
`CN1CN2CC(O)c3c(C(=O)NCc4ccc(F)cc4F)c(=O)c(O)c(n32)C1=O` (stereo not shown) [Compound 4]: the IC50 was 3.5 nM.
With `CN1CN2CC(O)c3c(C(=O)NCc4ccc(F)cc4)c(=O)c(O)c(n32)C1=O` (stereo not shown) [Compound 6], the IC50 came out at 3 nM.
For `CN1CN2CC(O)c3c(C(=O)NCc4c(F)ccc(Cl)c4F)c(=O)c(O)c(n32)C1=O` (stereo not shown) [Compound 8], the IC50 was found to be 1.9 nM.
On the same count and under the same terms, the result for `CC1N(C)C(=O)c2c(O)c(=O)c(C(=O)NCc3ccc(F)cc3F)c3n2N1CC3O` (stereo not shown) [Compound 16] reads 1.9 nM.
Still for that read-out and setting: the figure for `CC1N(C)C(=O)c2c(O)c(=O)c(C(=O)NCc3c(F)cc(F)cc3F)c3n2N1CC3O` (stereo not shown) [Compound 20] is 1.7 nM; for `CC1N(C)C(=O)c2c(O)c(=O)c(C(=O)NCc3c(F)ccc(F)c3F)c3n2N1CC3O` (stereo not shown) [Compound 24] it is 1.5 nM; for `CCC1N(C)C(=O)c2c(O)c(=O)c(C(=O)NCc3c(F)ccc(Cl)c3F)c3n2N1CC3O` (stereo not shown) [Compound 28] it is 3.3 nM.
With `CCC1N(C)C(=O)c2c(O)c(=O)c(C(=O)NCc3ccc(F)cc3F)c3n2N1CC3O` (stereo not shown) [Compound 32], the IC50 worked out at 2.5 nM.
For the molecule `CCC1N(C)C(=O)c2c(O)c(=O)c(C(=O)NCc3c(F)cc(F)cc3F)c3n2N1CC3O` (stereo not shown) [Compound 36], the IC50 amounted to 1.5 nM.
Take `COCCN1CN2CC(O)c3c(C(=O)NCc4ccc(F)c(Cl)c4F)c(=O)c(O)c(n32)C1=O` (stereo not shown) [Compound 40]: the IC50 was determined as 2.1 nM.

The same experiment, now with this note: Human immunodeficiency virus 1, IIIB, 0% NHS condition; MT4-GFP cells infected with HIV-1 H9/IIIB; inhibition of reproductive ratio R0, ~48 h and ~72 h post-infection; read-out: WILD TYPE CELL ASSAY Viking IP (0% NHS).
Turning to `CC1N(C)C(=O)c2c(O)c(=O)c(C(=O)NCc3ccc(F)cc3F)c3n2N1CC3O` (single isomer, unassigned) [Compound 13], the IC50 was 1.7 nM.
On the same count and under the same terms, the figure for `CC1N(C)C(=O)c2c(O)c(=O)c(C(=O)NCc3c(F)cc(F)cc3F)c3n2N1CC3O` (single isomer, unassigned) [Compound 17] is 1.5 nM.
With `CC1N(C)C(=O)c2c(O)c(=O)c(C(=O)NCc3c(F)ccc(F)c3F)c3n2N1CC3O` (single isomer, unassigned) [Compound 21], the IC50 came to 1.4 nM.
The same measure, in the same setting: the figure for `CCC1N(C)C(=O)c2c(O)c(=O)c(C(=O)NCc3c(F)ccc(Cl)c3F)c3n2N1CC3O` (single isomer, unassigned) [Compound 25] is 2 nM; for `CCC1N(C)C(=O)c2c(O)c(=O)c(C(=O)NCc3c(F)cc(F)cc3F)c3n2N1CC3O` (single isomer, unassigned) [Compound 33] it is 1.4 nM; for `CCN1C(=O)c2c(O)c(=O)c(C(=O)NCc3c(F)ccc(Cl)c3F)c3n2N(CC3O)C1C` (single isomer, unassigned) [Compound 69] it is 1.9 nM.
Regarding `CCN1C(=O)c2c(O)c(=O)c(C(=O)NCc3ccc(C(F)F)cc3)c3n2N(CC3O)C1C` (single isomer, unassigned) [Compound 73], the IC50 was 80 nM.
In the case of `CCN1C(=O)c2c(O)c(=O)c(C(=O)NCc3c(F)ccc(F)c3F)c3n2N(CC3O)C1C` (single isomer, unassigned) [Compound 81], the IC50 worked out at 2.8 nM.
On to `CCN1C(=O)c2c(O)c(=O)c(C(=O)NCc3ccc(F)cc3)c3n2N(CC3O)C1C` (single isomer, unassigned) [Compound 85], for which the IC50 was 2.6 nM.
For the molecule `CCN1C(=O)c2c(O)c(=O)c(C(=O)NCc3ccc(F)cc3F)c3n2N(CC3O)C1C` (single isomer, unassigned) [Compound 89], the IC50 was 1.9 nM.
Still for that read-out and setting: the figure for `CN1C(=O)c2c(O)c(=O)c(C(=O)NCc3ccc(F)cc3F)c3n2N(CC3O)C12CCOC2` (single isomer, unassigned) [Compound 111] is 2.1 nM; for `CN1C(=O)c2c(O)c(=O)c(C(=O)NCc3c(F)ccc(Cl)c3F)c3n2N(CC3O)C12CCOC2` (single isomer, unassigned) [Compound 115] it is 2 nM.
With `CN1CN2CC(O)c3c(C(=O)NCc4ccc(F)cc4F)c(=O)c(O)c(n32)C1=O` (stereo not shown) [Compound 3], the IC50 is 3.2 nM.
Same read-out and setting: the figure for `CN1CN2CC(O)c3c(C(=O)NCc4ccc(F)cc4)c(=O)c(O)c(n32)C1=O` (stereo not shown) [Compound 5] is 3.5 nM; for `CN1CN2CC(O)c3c(C(=O)NCc4c(F)ccc(Cl)c4F)c(=O)c(O)c(n32)C1=O` (stereo not shown) [Compound 7] it is 1.6 nM; for `CC1N(C)C(=O)c2c(O)c(=O)c(C(=O)NCc3ccc(F)cc3F)c3n2N1CC3O` (stereo not shown) [Compound 15] it is 2.6 nM.
For the molecule `CC1N(C)C(=O)c2c(O)c(=O)c(C(=O)NCc3c(F)cc(F)cc3F)c3n2N1CC3O` (stereo not shown) [Compound 19], the IC50 was 2.7 nM.
Still for that read-out and setting: the result for `CC1N(C)C(=O)c2c(O)c(=O)c(C(=O)NCc3c(F)ccc(F)c3F)c3n2N1CC3O` (stereo not shown) [Compound 23] reads 2.3 nM.
Still for that read-out and setting: the result for `CCC1N(C)C(=O)c2c(O)c(=O)c(C(=O)NCc3c(F)ccc(Cl)c3F)c3n2N1CC3O` (stereo not shown) [Compound 27] reads 2.9 nM.
On the same count and under the same terms, the figure for `CCC1N(C)C(=O)c2c(O)c(=O)c(C(=O)NCc3ccc(F)cc3F)c3n2N1CC3O` (stereo not shown) [Compound 31] is 4.9 nM; for `CCC1N(C)C(=O)c2c(O)c(=O)c(C(=O)NCc3c(F)cc(F)cc3F)c3n2N1CC3O` (stereo not shown) [Compound 35] it is 2.1 nM; for `COCCN1CN2CC(O)c3c(C(=O)NCc4ccc(F)c(Cl)c4F)c(=O)c(O)c(n32)C1=O` (stereo not shown) [Compound 39] it is 2.2 nM.
`COCCN1CN2CC(O)c3c(C(=O)NCc4cccc(Cl)c4F)c(=O)c(O)c(n32)C1=O` (stereo not shown) [Compound 41]: the IC50 amounted to 2.8 nM.
